Results as given in ChEMBL document CHEMBL1201862, “PubChem BioAssay data set” (2004).
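Tested at 5 concentrations; 48 h exposure; 96-well plates; endpoints linearly interpolated, else capped at highest concentration. GI50 marks 50% less growth.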 Calls of active or inactive are those of the source. Cut-off read from the data, not from the text of the source: active = GI50 up to about 1.1 µM and inactive = higher.

Key:
Experiment in all cases: NCI tumour cell line growth inhibition, 48 h
OVCAR-4 = system: OVCAR-4
SK-MEL-28 = system: SK-MEL-28
MOLT-4 = system: MOLT-4
SF-268 = system: SF-268
SNB-75 = system: SNB-75
KM12 = system: KM12
BT-549 = system: BT-549
LOX IMVI = system: LOX IMVI
HCT-15 = system: HCT-15
UO-31 = system: UO-31
CAKI-1 = system: CAKI-1
HOP-92 = system: HOP-92
NCI/ADR-RES = system: NCI/ADR-RES
SK-MEL-5 = system: SK-MEL-5
IGROV-1 = system: IGROV-1
SW-620 = system: SW-620
COLO 205 = system: COLO 205
TK-10 = system: TK-10
CCRF-CEM = system: CCRF-CEM
A549 = system: A549
NCI-H23 = system: NCI-H23
NCI-H522 = system: NCI-H522
ACHN = system: ACHN
SF-539 = system: SF-539
RPMI-8226 = system: RPMI-8226
SK-MEL-2 = system: SK-MEL-2
Hs-578T = system: Hs-578T
HCC 2998 = system: HCC 2998
MDA-MB-435 = system: MDA-MB-435
SN12C = system: SN12C
MDA-MB-231 = system: MDA-MB-231
A498 = system: A498
EKVX = system: EKVX
SR = system: SR
OVCAR-5 = system: OVCAR-5
HOP-62 = system: HOP-62
OVCAR-3 = system: OVCAR-3
UACC-257 = system: UACC-257
MDA-N = system: MDA-N
MCF7 = system: MCF7
Malme-3M = system: Malme-3M
HL-60 = system: HL-60
HT-29 = system: HT-29
U-251 = system: U-251
RXF 393 = system: RXF 393
K562 = system: K562
PC-3 = system: PC-3
OVCAR-8 = system: OVCAR-8
NCI-H226 = system: NCI-H226
786-0 = system: 786-0
DU-145 = system: DU-145
SF-295 = system: SF-295
HCT-116 = system: HCT-116
NCI-H460 = system: NCI-H460

For `CNC(=O)OCc1cnc([N+](=O)[O-])n1C`, the GI50 (OVCAR-4) was > 100 µM (inactive), the GI50 (SK-MEL-28) was > 100 µM (inactive) and the GI50 (MOLT-4) was > 100 µM (inactive). For the same compound, the GI50 (SF-268) was > 100 µM (inactive), the GI50 (SNB-75) was > 100 µM (inactive) and the GI50 (KM12) was > 100 µM (inactive). The GI50 (BT-549) was > 100 µM (inactive), the GI50 (LOX IMVI) was > 100 µM (inactive) and the GI50 (HCT-15) was > 100 µM. The GI50 (UO-31) was > 100 µM (inactive), the GI50 (CAKI-1) was > 100 µM (inactive) and the GI50 (HOP-92) was > 100 µM (inactive). For the same compound, the GI50 (NCI/ADR-RES) was > 100 µM (inactive), the GI50 (SK-MEL-5) was > 100 µM (inactive) and the GI50 (IGROV-1) was > 100 µM (inactive). The GI50 (SW-620) was > 100 µM (inactive), the GI50 (COLO 205) was > 100 µM (inactive) and the GI50 (TK-10) was > 100 µM (inactive). The GI50 (CCRF-CEM) was > 100 µM (inactive), the GI50 (A549) was > 100 µM (inactive) and the GI50 (NCI-H23) was > 100 µM (inactive). The GI50 (NCI-H522) was > 100 µM (inactive), the GI50 (ACHN) was > 100 µM (inactive) and the GI50 (SF-539) was > 100 µM (inactive). For the same compound, the GI50 (RPMI-8226) was > 100 µM (inactive), the GI50 (SK-MEL-2) was > 100 µM (inactive) and the GI50 (Hs-578T) was > 100 µM (inactive). For the same compound, the GI50 (HCC 2998) was > 100 µM (inactive), the GI50 (MDA-MB-435) was > 100 µM (inactive) and the GI50 (SN12C) was > 100 µM (inactive). For the same compound, the GI50 (MDA-MB-231) was > 100 µM (inactive), the GI50 (A498) was > 100 µM (inactive) and the GI50 (EKVX) was > 100 µM (inactive). The GI50 (SR) was > 100 µM (inactive), the GI50 (OVCAR-5) was > 100 µM (inactive) and the GI50 (HOP-62) was > 100 µM (inactive). For the same compound, the GI50 (OVCAR-3) was > 100 µM (inactive), the GI50 (UACC-257) was > 100 µM (inactive) and the GI50 (MDA-N) was > 100 µM (inactive). The GI50 (MCF7) was > 100 µM (inactive), the GI50 (Malme-3M) was > 100 µM (inactive) and the GI50 (HL-60) was > 100 µM (inactive). The GI50 (HT-29) was > 100 µM (inactive), the GI50 (U-251) was > 100 µM (inactive) and the GI50 (RXF 393) was > 100 µM (inactive). The GI50 (K562) was > 100 µM (inactive), the GI50 (PC-3) was > 100 µM (inactive) and the GI50 (OVCAR-8) was > 100 µM (inactive). The GI50 (NCI-H226) was > 100 µM (inactive), the GI50 (786-0) was > 100 µM (inactive) and the GI50 (DU-145) was > 100 µM (inactive). The GI50 (SF-295) was > 100 µM (inactive), the GI50 (HCT-116) was > 100 µM (inactive) and the GI50 (NCI-H460) was > 100 µM (inactive).
